Test results: ChEMBL document CHEMBL1201862, “PubChem BioAssay data set” (2004)
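Interpolation was linear, between the two tested concentrations surrounding the appropriate level; five concentrations were tested over 48 hours in 96-well plates. GI50 is the concentration that inhibits growth by half.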 Calls of active or inactive are those of the source. Cut-off read from the data, not from the text of the source: active = GI50 up to about 1.1 µM and inactive = higher.

Tests used:
Test in all cases: NCI tumour cell line growth inhibition, 48 h
MDA-MB-435 = tested on: MDA-MB-435
SN12C = tested on: SN12C
HL-60 = tested on: HL-60
MCF7 = tested on: MCF7
NCI-H226 = tested on: NCI-H226
SF-268 = tested on: SF-268
K562 = tested on: K562
CCRF-CEM = tested on: CCRF-CEM
RXF 393 = tested on: RXF 393
SR = tested on: SR
TK-10 = tested on: TK-10
DU-145 = tested on: DU-145
T47D = tested on: T47D
SK-MEL-2 = tested on: SK-MEL-2
A498 = tested on: A498
ACHN = tested on: ACHN
NCI/ADR-RES = tested on: NCI/ADR-RES
IGROV-1 = tested on: IGROV-1
SF-539 = tested on: SF-539
786-0 = tested on: 786-0

| SMILES | GI50 (MDA-MB-435) | GI50 (SN12C) | GI50 (HL-60) | GI50 (MCF7) | GI50 (NCI-H226) | GI50 (SF-268) | GI50 (K562) | GI50 (CCRF-CEM) | GI50 (RXF 393) | GI50 (SR) | GI50 (TK-10) | GI50 (DU-145) | GI50 (T47D) | GI50 (SK-MEL-2) | GI50 (A498) | GI50 (ACHN) | GI50 (NCI/ADR-RES) | GI50 (IGROV-1) | GI50 (SF-539) | GI50 (786-0) |
| --- | --- | --- | --- | --- | --- | --- | --- | --- | --- | --- | --- | --- | --- | --- | --- | --- | --- | --- | --- | --- |
| CSC1=N/C(=C\c2c[nH]c3ccccc23)C(=O)N1 | 55.2 µM (inactive) | > 100 µM (inactive) | 18.3 µM (inactive) | 28.8 µM (inactive) | > 100 µM (inactive) | 71 µM (inactive) | 75.9 µM (inactive) | > 100 µM (inactive) | 92.7 µM (inactive) | 97.7 µM (inactive) | 66.7 µM (inactive) | 96.8 µM (inactive) | 53.2 µM (inactive) | 35.8 µM (inactive) | 38.1 µM (inactive) | 44.4 µM (inactive) | 85.7 µM (inactive) | 67.6 µM (inactive) | > 100 µM (inactive) | 84.3 µM (inactive) |
| COC(=O)c1ccccc1C1CN=NC12Cc1c(C)cccc1C2=O (stereo not given) | > 100 µM (inactive) | > 100 µM (inactive) | 87.3 µM (inactive) | > 100 µM (inactive) | > 100 µM (inactive) | > 100 µM (inactive) | > 100 µM (inactive) | > 100 µM (inactive) | > 100 µM (inactive) | > 100 µM (inactive) | > 100 µM (inactive) | > 100 µM (inactive) | 52.7 µM (inactive) | 48.3 µM (inactive) | > 100 µM (inactive) | > 100 µM (inactive) | 60.8 µM (inactive) | > 100 µM (inactive) | > 100 µM (inactive) | > 100 µM (inactive) |
| OC1(CCc2ccccc2)COC(C(F)(F)F)(C(F)(F)F)C1 (stereo not given) | > 100 µM (inactive) | > 100 µM (inactive) | > 100 µM (inactive) | > 100 µM (inactive) | > 100 µM (inactive) | > 100 µM (inactive) | > 100 µM (inactive) | > 100 µM (inactive) | > 100 µM (inactive) | > 100 µM (inactive) | > 100 µM (inactive) | > 100 µM (inactive) | > 100 µM (inactive) | > 100 µM (inactive) | > 100 µM (inactive) | > 100 µM (inactive) | > 100 µM (inactive) | > 100 µM (inactive) | > 100 µM (inactive) | > 100 µM (inactive) |
| O=C1O[C@H]2C3C4CCC(C4[C@@H]2I)[C@H]13 (stereo not given in full) | > 100 µM (inactive) | > 100 µM (inactive) | > 100 µM (inactive) | > 100 µM (inactive) | > 100 µM (inactive) | > 100 µM (inactive) | > 100 µM (inactive) | > 100 µM (inactive) | > 100 µM (inactive) | > 100 µM (inactive) | > 100 µM (inactive) | > 100 µM (inactive) | > 100 µM (inactive) | > 100 µM (inactive) | > 100 µM (inactive) | > 100 µM (inactive) | > 100 µM (inactive) | > 100 µM (inactive) | > 100 µM (inactive) | > 100 µM (inactive) |
| COC(=O)CCC(C)[C@H]1CCC2C3C(C[C@H](OC(C)=O)[C@@]21C)[C@@]1(C)CCC2(C[C@H]1C[C@H]3OC(C)=O)OOC1(CCCC1)OO2 (stereo not given in full) | 29.9 µM (inactive) | 42.5 µM (inactive) | 5.02 µM (inactive) | 31.5 µM (inactive) | 27.9 µM (inactive) | 25.6 µM (inactive) | 6.3 µM (inactive) | 7.89 µM (inactive) | 63.1 µM (inactive) | 3.02 µM (inactive) | 48.3 µM (inactive) | 27 µM (inactive) | 7.19 µM (inactive) | > 100 µM (inactive) | > 100 µM (inactive) | 10.4 µM (inactive) | 84.5 µM (inactive) | 5.6 µM (inactive) | > 100 µM (inactive) | 29.6 µM (inactive) |
| Cc1c(Cl)cc(C(C)(C)C)c(O)c1Cc1c(C)c(Cl)cc(C(C)(C)C)c1O | 2.06 µM (inactive) | 1.87 µM (inactive) | 1.17 µM (inactive) | 1 µM (active) | 2.22 µM (inactive) | 1.74 µM (inactive) | 0.752 µM (active) | 0.303 µM (active) | 0.9 µM (active) | 2.18 µM (inactive) | 2.04 µM (inactive) | 1.96 µM (inactive) | 0.562 µM (active) | 1.73 µM (inactive) | 1.26 µM (inactive) | 1.29 µM (inactive) | 2.14 µM (inactive) | 1.1 µM (active) | 1.97 µM (inactive) | 1.73 µM (inactive) |
| CS(=O)(=O)Nc1ccc2ccccc2c1-c1c(NS(C)(=O)=O)ccc2ccccc12 | > 25 µM (inactive) | > 25 µM (inactive) | > 25 µM (inactive) | 1.17 µM (inactive) | > 25 µM (inactive) | > 25 µM (inactive) | > 25 µM (inactive) | > 25 µM (inactive) | > 21.5 µM (inactive) | > 25 µM (inactive) | > 25 µM (inactive) | > 25 µM (inactive) | > 25 µM (inactive) | > 25 µM (inactive) | > 25 µM (inactive) | 0.982 µM (active) | > 25 µM (inactive) | > 25 µM (inactive) | > 25 µM (inactive) | > 15.5 µM (inactive) |
| O=C(c1nc2ccc([N+](=O)[O-])cc2nc1O)C(O)c1ccc2c(c1)OCO2 (stereo not given) | 93.1 µM (inactive) | > 100 µM (inactive) | > 39.1 µM (inactive) | 96.8 µM (inactive) | > 100 µM (inactive) | > 100 µM (inactive) | > 78.9 µM (inactive) | 83.9 µM (inactive) | > 100 µM (inactive) | > 100 µM (inactive) | > 100 µM (inactive) | > 100 µM (inactive) | > 100 µM (inactive) | > 100 µM (inactive) | > 100 µM (inactive) | > 100 µM (inactive) | > 100 µM (inactive) | > 100 µM (inactive) | > 100 µM (inactive) | > 100 µM (inactive) |
| COC(=O)C1=C(C)NC(C)=C([N+](=O)[O-])C1c1cccc(NO)c1 (stereo not given) | 1.98 µM (inactive) | 4.75 µM (inactive) | 2.8 µM (inactive) | 3.94 µM (inactive) | 7.28 µM (inactive) | 6.01 µM (inactive) | 2.72 µM (inactive) | 2.34 µM (inactive) | 6.5 µM (inactive) | 2.53 µM (inactive) | 5.12 µM (inactive) | 6.67 µM (inactive) | 3.27 µM (inactive) | 11.2 µM (inactive) | 6.24 µM (inactive) | 3.1 µM (inactive) | 4.16 µM (inactive) | 5.01 µM (inactive) | 6.11 µM (inactive) | 4.48 µM (inactive) |
| COc1nc(C(Cl)(Cl)Cl)c(Cl)c(OC)c1Cl [PENCLOMEDINE] | 42.5 µM (inactive) | 39 µM (inactive) | 7.46 µM (inactive) | 17.7 µM (inactive) | 34.4 µM (inactive) | 36.1 µM (inactive) | 26.4 µM (inactive) | 32.5 µM (inactive) | 36.7 µM (inactive) | 37.1 µM (inactive) | 52.6 µM (inactive) | 38.7 µM (inactive) | 37.4 µM (inactive) | 35.1 µM (inactive) | 52.6 µM (inactive) | 39.3 µM (inactive) | 24.3 µM (inactive) | 14.2 µM (inactive) | 40.8 µM (inactive) | 6.59 µM (inactive) |
| Nc1nc(SCc2ccccc2[N+](=O)[O-])c2[nH]cnc2n1 | 36 µM (inactive) | > 57.1 µM (inactive) | > 53.6 µM (inactive) | 51.5 µM (inactive) | > 50.9 µM (inactive) | > 35.7 µM (inactive) | > 55.2 µM (inactive) | > 44.8 µM (inactive) | > 62.8 µM (inactive) | > 51.6 µM (inactive) | > 34.8 µM (inactive) | 44.7 µM (inactive) | 23.3 µM (inactive) | 26.7 µM (inactive) | 18.6 µM (inactive) | > 57.8 µM (inactive) | 26.7 µM (inactive) | > 38 µM (inactive) | > 100 µM (inactive) | > 65.2 µM (inactive) |
| COc1cc(C2c3cc4c(cc3OC(NC3CCCCC3)C2C)OCO4)cc(OC)c1OC (stereo not given) | 0.19 µM (active) | 0.687 µM (active) | 0.271 µM (active) | 0.485 µM (active) | 1.52 µM (inactive) | 0.701 µM (active) | 0.393 µM (active) | 0.422 µM (active) | 0.258 µM (active) | 0.378 µM (active) | 16.9 µM (inactive) | 0.478 µM (active) | 0.339 µM (active) | 0.578 µM (active) | 0.681 µM (active) | 0.746 µM (active) | 0.296 µM (active) | 0.665 µM (active) | 0.339 µM (active) | 0.493 µM (active) |
| C=CC1=C(C)c2cc3[nH]c(c4c5nc(cc6[nH]c(cc1n2)c(C=O)c6CC)C(C)=C5C(=O)[C@@H]4C(=O)OC)[C@@H](CCC(=O)O)[C@@H]3C | > 100 µM (inactive) | > 100 µM (inactive) | 42.6 µM (inactive) | > 100 µM (inactive) | > 100 µM (inactive) | 24.4 µM (inactive) | 51.3 µM (inactive) | 31.3 µM (inactive) | 1.79 µM (inactive) | 10 µM (inactive) | > 100 µM (inactive) | 13.4 µM (inactive) | 20.7 µM (inactive) | > 100 µM (inactive) | > 100 µM (inactive) | 46 µM (inactive) | > 100 µM (inactive) | 63.5 µM (inactive) | 39.6 µM (inactive) | > 100 µM (inactive) |
| CC(C)c1cc(C(C)C)c(P2(=O)CC3C(Cl)(Cl)C3(C)C2)c(C(C)C)c1 (stereo not given) | 9.73 µM (inactive) | 12.3 µM (inactive) | 4.2 µM (inactive) | 7.31 µM (inactive) | 16.7 µM (inactive) | 12.1 µM (inactive) | 8.95 µM (inactive) | 2.24 µM (inactive) | 12.9 µM (inactive) | 1.74 µM (inactive) | 12.1 µM (inactive) | 14.5 µM (inactive) | 6.44 µM (inactive) | 11.3 µM (inactive) | 13.8 µM (inactive) | 12.5 µM (inactive) | 6.04 µM (inactive) | 12.1 µM (inactive) | 14 µM (inactive) | 6.22 µM (inactive) |
